How the values were obtained:
ER negative HeLa cells = settings: 10-20 μM; cited from earlier work
[1] = test system: ERα negative MDA-MB-231 cells; experiment: MDA-MB-231 cell growth / toxicity assay (MTS); assay type: cell-based, human
Method: ERα negative MDA-MB-231 human breast cancer cells were used to test for generalized toxicity of the test compounds. To parallel the reporter gene assays in stably transfected T47D breast cancer cells, 5,000 MDA-MB-231 cells per well were plated in a 96 well plate. The cells were maintained in the medium described above for the T47D cells. One day after plating, the same concentration of test compound used in the reporter gene assay (up to 30 μM) was added. After 24 h the MTS assay was carried out as described above. A more stringent toxicity assay parallels the assay for inhibition of estrogen-dependent growth of BG-1 cells. 250 MDA-MB-231 cells were plated per well and maintained and assayed as described for the BG-1 cells. Several compounds without detectable toxicity in the 24-h assay inhibited MDA-MB-231 cell growth in the 5-6 day assay.
Assays for Cell Growth and Viability. Cells were maintained in the media listed above containing CD-treated serum for at least 4 days prior to the experiment. To minimize cell aggregation, MCF-7 cells were harvested in 10 mM Hepes, pH 7.4, 1 mM EDTA. Other cell lines were harvested in trypsin-EDTA. 1,000 cells were plated into each well of a 96 well plate. For slow growing ZR-75 cells, 2,000 cells were plated/well. The cells were maintained in medium containing CD-treated serum for 24 hours. At 24 hours the medium was changed and E2 and DMSO vehicle or TPSF in DMSO was added. The medium was replaced after 2 days (except for BT474 cells whose medium was not changed). After 4 days viable cells were determined using a cell viability test, Promega CellTiter 96 Aqueous One Solution Cell Proliferation Assay (MTS) (Promega, Wis.).

GR = biological target: T1, GR (Rattus norvegicus, UniProt P06536); experiment: GR transactivation, MMTV-luciferase reporter in T47D cells; assay type: cell-based, human
T1 construct: expressed in transfected cells; host or cells: T47D/A1-2
T1 sequence (P06536 1-795): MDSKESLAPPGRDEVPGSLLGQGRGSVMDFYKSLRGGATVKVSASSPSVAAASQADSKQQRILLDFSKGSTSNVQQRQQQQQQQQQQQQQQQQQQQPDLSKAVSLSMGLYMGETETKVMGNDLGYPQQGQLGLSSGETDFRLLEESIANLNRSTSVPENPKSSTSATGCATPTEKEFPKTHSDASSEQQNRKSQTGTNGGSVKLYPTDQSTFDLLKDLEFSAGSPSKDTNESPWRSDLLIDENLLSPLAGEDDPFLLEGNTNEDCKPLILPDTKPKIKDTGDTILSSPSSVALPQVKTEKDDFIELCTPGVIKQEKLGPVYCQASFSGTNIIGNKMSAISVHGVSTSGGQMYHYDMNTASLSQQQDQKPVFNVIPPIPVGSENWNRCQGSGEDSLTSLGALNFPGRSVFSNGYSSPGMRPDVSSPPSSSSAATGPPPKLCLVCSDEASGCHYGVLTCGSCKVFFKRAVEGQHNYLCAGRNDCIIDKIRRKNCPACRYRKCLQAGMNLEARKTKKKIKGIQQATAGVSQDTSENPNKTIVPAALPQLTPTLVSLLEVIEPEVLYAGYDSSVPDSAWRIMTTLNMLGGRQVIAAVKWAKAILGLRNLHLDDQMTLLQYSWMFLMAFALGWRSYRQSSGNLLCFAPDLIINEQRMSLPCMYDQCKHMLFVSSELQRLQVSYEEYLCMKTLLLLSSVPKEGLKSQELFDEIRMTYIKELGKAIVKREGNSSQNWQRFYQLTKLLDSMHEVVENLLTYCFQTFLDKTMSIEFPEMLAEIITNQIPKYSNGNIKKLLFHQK
Method: The T47D-KBluc cells stably express an (ERE)3-luciferase reporter gene (38). Cells were maintained in phenol red-free RPMI 1640 with 2 mM L-glutamine, 1.5 g/l sodium bicarbonate, 4.5 g/l glucose, 10 mM Hepes, pH 7.5, 1 mM sodium pyruvate, 10% FBS (Atlanta Biological, Atlanta, Ga.) and antibiotics. Four days before E2 induction, the cells were switched to the above medium, with 10% 2× charcoal-dextran-treated calf serum instead of FBS. 200,000 cells/well were transferred to each well of a 24-well plate. After 24 h the indicated concentrations of the test compounds were added in DMSO and E2 was added to 20 pM. After 24 h cells were washed once in PBS, and 150 μl 1× Passive Lysis Buffer (Promega, Madison Wis.) was used to lyse the cells. Luciferase activity was determined using firefly luciferase reagents from Promega (Madison, Wis.). T47D cells stably transfected to express GR and a mouse mammary tumor virus luciferase reporter that responds to liganded GR and PR were maintained and assayed in medium containing 5 nM progesterone for PR assays, or 2.5 nM dexamethsaone for GR assays, essentially as described (39).
Reporter Gene Assays. TPSF was identified by reporter gene assays comparing the ability of ˜200 compounds structurally related to TPBM (see reference 19) to inhibit transcription of a stably transfected (ERE)3-luciferase reporter gene in T47D-KBluc breast cancer cells (20). AR was assayed in stably transfected HeLa cells and GR was assayed in stably transfected T47D cells maintained as described above. Four days before each experiment the cells were switched to medium containing CD-treated serum as described above. The HeLaAR cells were plated at 100,000 cells/well and the T47D/A1-2 and T47D-KBluc cells were plated at 200,000 cells/well in 1 ml of their respective media in 24-well plates. After 24 hours the indicated concentrations of E2, dihydrotestosterone (DHT) or dexamethasone (Dex) and DMSO vehicle, with or without TPSF, were added to each well. After 24 hours, the cells were washed once in phosphate buffered saline and lysed using 100 μl of 1× Passive Lysis Buffer (Promega, Madison Wis.). Luciferase activity was determined using BrightGlo firefly luciferase reagent from Promega (Madison, Wis.).

[2] = Short-term mouse toxicity study; assay type: in vivo; settings: up to 400 mg/kg
BT474 cells = settings: 5 μM; see Wang 2006; cited from earlier work
ZR-75 cells = settings: 5 μM; see Wang 2006; cited from earlier work

**Q.** With “4-hydroxytamoxifen [OHT, reference compound]” as the molecule, how does the “effect in ER negative HeLa cells” value (ER negative HeLa cells) read?
**A.** The value was “induce caspase-dependent apoptosis”.

**Q.** What about the “effect on MDA-MB-231 cells” value ([1]; 10 μM) of the same molecule?
**A.** The value was “killed many”.

**Q.** What about the “effect on MDA-MB-231 cells” value ([1]; 20 μM) of the same molecule?
**A.** Its value is “all the cells were killed”.

**Q.** For `Cn1c(=O)c2[nH]c(Cc3ccc4ccccc4c3)nc2n(C)c1=O` [Compound 14147], which “effect on GR” value (GR) is on record?
**A.** Its value is “virtually no effect”.

**Q.** Which “toxicity in a short-term mouse study” value [2] does the source give for `CCCCCCCc1nc2c([nH]1)c(=O)n(C)c(=O)n2C` [Compound 101794] here?
**A.** Its value is “no toxicity”.

**Q.** With `O=C(c1ccc(OCCN2CCCCC2)cc1)c1c(-c2ccc(O)cc2)sc2cc(O)ccc12` [raloxifene] as the molecule, how does the “effect in ER negative HeLa cells” value (ER negative HeLa cells) read?
**A.** The value was “induce caspase-dependent apoptosis”.

**Q.** With disulfide benzamide [DIBA] as the molecule, how does the “effect on growth of tamoxifen-resistant BT474 cells” value (BT474 cells) read?
**A.** The value was “did not inhibit”.

**Q.** And the “inhibition of growth of ZR-75 cells” value (ZR-75 cells)?
**A.** Its value is about 20%.

From patent US8871751B2, “Compositions and methods relating to nuclear hormone and steroid hormone receptors including inhibitors of estrogen receptor alpha-mediated gene expression and inhibition of breast cancer” (The Board of Trustees of the University of Illinois, priority 2008, dated 2014)
